Laboratory results: patent EP0728012B1, “NOVEL GnRH ANALOGUES WITH ANTITUMOUR EFFECTS AND PHARMACEUTICAL COMPOSITIONS THEREOF” (Lovas, Sandor, priority 1994, dated 1996)
Non-standard residues stand in square brackets, D forms with d. Residues, ends and D or L forms follow the SMILES beside them. Groups on a side chain read outwards from the residue. *: point of attachment. dPhe(4-Cl) = N[C@H](Cc1ccc(Cl)cc1)C(=O)O; NEt2 = CCN(CC)*

Legend:
[1] = system: Ishikawa human endometrium carcinoma cell line; test: Inhibition of colony formation (dose-survival relation, Example 18); assay type: cell-based; conditions: 50 µM
Description: (§1) In the case of cytostatics the cell-damaging effect is not cell-specific. […] One part of the arrested cells again go into the cycle, the other part may perish (apoptosis). […] The investigations were carried out on MCF-7 and MDA-MB-231 human mammary carcinoma cell lines, PC3 human prostate 15 carcinoma cell line and Ishikawa human endometrium carcinoma cell line. Three hundred cells were set into Petri dishes of 3.5 cm in diameter each. The treatment was carried out once, 24 hours following the explantation, then the colonies formed were counted after 9 to 12 days.

[2] = system: PC3 human prostate carcinoma cell line; test: as above; assay type: cell-based; conditions: 50 µM
Description: as §1

Ishikawa = conditions: 30 µM, peptide alone, two treatments on days 2 and 4
Description: The procedure of treatment was as follows. After trypsinization the cells, 400,000 cells of MCF-7, MDA-MB-231 human mammary carcinoma, PC3 human prostate carcinoma or Ishikawa human endometrium tumour each were passed into Petri dishes of 10 cm in diameter. Starting from the day following transfer, the cells were treated with the substances to be tested in solution prepared with the nutrient medium during the exponential growth phase. The cultures were treated with 1 to 50 µM (calculated for the total volume of the culture) or MI-1544 GnRH antagonist, MI-1892 chicken GnRH antagonist or SJ-1004 GnRH […] on the 7th day.

PC3 = test: In vitro inhibition of cell proliferation (Example 19); assay type: cell-based, human; conditions: 30 µM, peptide alone, two treatments on days 2 and 4
Description: The procedure of treatment was as follows. After trypsinization the cells, 400,000 cells of MCF-7, MDA-MB-231 human mammary carcinoma, PC3 human prostate carcinoma or Ishikawa human endometrium tumour each were passed into Petri dishes of 10 cm in diameter. Starting from the day following transfer, the cells were treated with the substances to be tested in solution prepared with the nutrient medium during the exponential growth phase. The cultures were treated with 1 to 50 µM (calculated for the total volume of the culture) or MI-1544 GnRH antagonist, MI-1892 chicken GnRH antagonist or SJ-1004 GnRH antagonist analogues as well as synthetic lamprey GnRH-III hormone every two days and the cell count was determined on the 7th day.

MCF-7 xenograft = test: In vivo antitumour effect on MCF-7 xenograft in immunosuppressed mice; design: species or system CBA/Ca mice; conditions: MCF-7 xenograft; for Tumour volume as control (%): MI-1892 2 x 25 µg
Description: (§2) The immunosuppression of mice was carried out by using the method of Steel et al. [Br. J. Cancer, 37, 224-230 (1978)]. Immunosuppression and xeno-transplantation
(§3) CBA-Ca female mice of about 6 weeks old were thymectomized and then, after one week, they were irradiated with 60Co (whole body irradiation; the lethal dose is 9.5 Gray). Within 24 hours 3 to 5 x 10^5 myelocytes were injected into the animals. Beneath the skin of the immunosuppressed mice 2 x 10^7 tumour cells or, in the case of later passages, […] were implanted. […] The treatment with steroid hormone was stopped by at least one week before beginning the investigation.
In the case of MCF-7 tumours (xenografts) the examinations were carried out with passages being in the phase of the 37th and 38th, respectively, transplantations.
In the case of mice bearing MCF-7 xenograft, the treatment was begun in the 4th week following xeno-transplantation.
(§4) Recent investigations have begun on 28 animals bearing MCF-7 xenograft and on 28 animals bearing MDA-MB-231 xenograft. On animals bearing MCF-7 tumour the treatment was commenced in the 5th week following xeno-transplantation; the tumour volume was 205 to 225 mm^3. On animals bearing MDA-MB-231 tumour, the treatment was started in the 4th week after xeno-transplantation with a tumour volume of 140 to 150 mm^3. […] The control groups were daily treated with physiological saline s.c. (Each treated group consisting of 7 animals).

MDA-MB-231 xenograft = test: In vivo antitumour effect on MDA-MB-231 xenograft in immunosuppressed mice; design: species or system CBA/Ca mice; conditions: Table V
Description: as §2, §3, §4
A more recent study was started on 28 animals bearing MDA-MB-231 xenograft. The treatment was begun in the 4th or 5th week following xenotransplantation. The tumour volume was 0.165 to 0.194 cm^3. […] (For treatment of the control group, see the preceding Examples). Each group consisted of 7 animals.

MXT mouse mammary tumour = test: In vivo antitumour effect on mice bearing MXT mouse mammary tumour; design: species or system CBA/Ca mice
Description: The MXT mouse mammary carcinoma contains ER and PgR proteins; furthermore, it contains also GnRH receptors; therefore, this in vivo tumour model is suitable for studying both the direct and indirect effects. The treatment of mice bearing MXT mammary tumour was commenced on the day following transplantation. […] Table VI The animals were daily treated in s.c. route starting from the day following transplantation of MXT mouse mammary tumour. […] MI-1544: 75 µg/day/animal; MI-1892: 75 µg/day/animal.

humoral immune response = test: Humoral immune response (antibody production of B-lymphocytes); assay type: in vivo; conditions: mice
Text: (§5) The immunosuppressive side effect of cytostatics used in tumour therapy is commonly known. This effect can be compensated to a certain grade by various immunostimulants (endotoxin, levamisole). Polypeptides with much […] molecular weights (about 40,000 to 80,000) are also capable of protecting against immunosuppressive effect [Gaál et al: J. Biol. Resp. Modif., 5, 148-159 (1986)]. The molecular weight of the novel polyanionic P-GFLG-OH macromolecule tested by us is about 10,000, that of MI-1892 is about 2000, i.e. relatively low; therefore, their immunostimulatory activity was unexpected.

cellular immune response = test: Cellular immune response (rosette formation against BRBC antigen); assay type: in vivo; conditions: mice; 100 µg/mouse
Text: as §5

[3] = treatment week 4, MI-1892 2x25 µg daily s.c.
[4] = treatment week 6, MI-1892 2x25 µg, conjugates 1x50 µg daily s.c.
[5] = MXT mouse mammary tumour, Treatment weeks: 13, 1x75 µg daily s.c.
[6] = MXT mouse mammary tumour, Treatment weeks: 20, 1x75 µg daily s.c.

CCN(CC)C(=O)[C@H](CC(=O)N[C@@H](CC(C)C)C(=O)N[C@@H](CCC(N)=O)C(=O)N1CCC[C@H]1C(=O)N[C@H](C)C(N)=O)NC(=O)[C@H](CCCCN)NC(=O)[C@H](CO)NC(=O)[C@@H](Cc1c[nH]c2ccccc12)NC(=O)[C@@H](Cc1ccc(Cl)cc1)NC(=O)[C@@H](Cc1c[nH]c2ccccc12)NC(C)=O [MI-1892, Ac-D-Trp^1,3,D-Cpa^2,Lys^5,[β-Asp(DEA)]^6,D-Ala^10-hGnRH, reference compound] (Ac-[dW][dPhe(4-Cl)][dW]SKD([Leu-Gln-Pro-dA-NH2])-NEt2)
% Inhibition of colony formation [1]: 10% | % Inhibition of colony formation [2]: 5% | inhibition of proliferation (Ishikawa): 14% | inhibition of proliferation (PC3): 33% | decrease in the tumour volume in comparison to controls (MCF-7 xenograft; first study, end of 4th week, MI-1892 2 x 25 µg daily, conjugates 50 µg daily once): 20% | Tumour volume as control (%) (MCF-7 xenograft; treatment week 4): 78.5% | Tumour volume as control (%) (MCF-7 xenograft; treatment week 6, conjugates 1 x 50 µg): 79% | Inhibition % (MDA-MB-231 xenograft; [3]): 24.5% | Tumour volume as control (%) (MDA-MB-231 xenograft; [3]): 75.5% | Inhibition % (MDA-MB-231 xenograft; [4]): 22% | Tumour volume as control (%) (MDA-MB-231 xenograft; [4]): 78% | Inhibition % (MXT mouse mammary tumour; [5]): 51% | Tumour volume as control (%) (MXT mouse mammary tumour; [5]): 49% | Inhibition % (MXT mouse mammary tumour; [6]): 39% | Tumour volume as control (%) (MXT mouse mammary tumour; [6]): 61% | Tumour volume (cm^3) (MXT mouse mammary tumour; day 9, 75 µg/day/animal s.c.): 0.61 cm^3 | Tumour volume as control (%) (MXT mouse mammary tumour; day 9, 75 µg/day/animal s.c.): 86% | Tumour volume (cm^3) (MXT mouse mammary tumour; day 11, 75 µg/day/animal s.c.): 1.05 cm^3 | Tumour volume as control (%) (MXT mouse mammary tumour; day 11, 75 µg/day/animal s.c.): 58% | Tumour volume (cm^3) (MXT mouse mammary tumour; day 13, 75 µg/day/animal s.c.): 1.59 cm^3 | Tumour volume as control (%) (MXT mouse mammary tumour; day 13, 75 µg/day/animal s.c.): 49% | Tumour volume (cm^3) (MXT mouse mammary tumour; day 17, 75 µg/day/animal s.c.): 3.17 cm^3 | Tumour volume as control (%) (MXT mouse mammary tumour; day 17, 75 µg/day/animal s.c.): 62% | Tumour volume (cm^3) (MXT mouse mammary tumour; day 18, 75 µg/day/animal s.c.): 4.8 cm^3 | Tumour volume as control (%) (MXT mouse mammary tumour; day 18, 75 µg/day/animal s.c.): 64% | Tumour volume (cm^3) (MXT mouse mammary tumour; day 20, 75 µg/day/animal s.c.): 5.73 cm^3 | Tumour volume as control (%) (MXT mouse mammary tumour; day 20, 75 µg/day/animal s.c.): 61% | Tumour volume (cm^3) (MXT mouse mammary tumour; day 24, 75 µg/day/animal s.c.): 6.32 cm^3 | Tumour volume as control (%) (MXT mouse mammary tumour; day 24, 75 µg/day/animal s.c.): 50% | Tumour volume (cm^3) (MXT mouse mammary tumour; day 26, 75 µg/day/animal s.c.): 11.30 cm^3 | Tumour volume as control (%) (MXT mouse mammary tumour; day 26, 75 µg/day/animal s.c.): 82% | increase of the humoral immune response (humoral immune response; 50 µg/mouse): more than two-fold | increase of the humoral immune response (humoral immune response; 100 µg/mouse): three-fold | increase of the cellular immune response (cellular immune response): two-fold
